According to ChEMBL document CHEMBL5126678, “A New Naphthopyran Derivative Combines c-Myb Inhibition, Microtubule-Targeting Effects, and Antiangiogenic Properties” (ACS Med Chem Lett, 2022):
Each block holds one molecule with its values, some of them ahead of it. Activity calls are given as the source filed them. The calls are words filed in the database; no cut-off is given here.

Assays:
[1] = biological target: Transcriptional activator Myb (Homo sapiens, UniProt P10242); test: Inhibition of c-Myb (unknown origin) expressed in HEK293T cells measured after 16 hrs by steady-glo luciferase reporter gene assay; assay type: cell-based
Sequence of Transcriptional activator Myb (P10242 whole entry): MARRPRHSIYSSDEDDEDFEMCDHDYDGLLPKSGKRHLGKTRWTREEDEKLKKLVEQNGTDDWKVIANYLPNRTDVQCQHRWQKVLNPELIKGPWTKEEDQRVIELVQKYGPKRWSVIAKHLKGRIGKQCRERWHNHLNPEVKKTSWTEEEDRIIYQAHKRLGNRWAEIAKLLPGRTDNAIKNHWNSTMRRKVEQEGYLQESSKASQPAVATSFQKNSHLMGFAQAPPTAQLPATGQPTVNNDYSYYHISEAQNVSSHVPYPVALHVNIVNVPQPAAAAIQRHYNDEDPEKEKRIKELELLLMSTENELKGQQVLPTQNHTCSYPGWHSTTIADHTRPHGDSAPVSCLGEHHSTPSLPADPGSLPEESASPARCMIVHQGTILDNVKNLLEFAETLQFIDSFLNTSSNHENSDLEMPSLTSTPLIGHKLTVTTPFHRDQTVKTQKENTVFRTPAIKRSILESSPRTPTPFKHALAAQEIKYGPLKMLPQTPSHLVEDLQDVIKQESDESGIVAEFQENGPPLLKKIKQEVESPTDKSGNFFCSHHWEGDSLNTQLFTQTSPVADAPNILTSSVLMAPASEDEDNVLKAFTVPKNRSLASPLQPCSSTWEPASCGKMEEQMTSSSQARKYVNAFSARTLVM

[2] = Effect on angiogenic activity in 24 hrs post-fertilized fil1/EGFP transgenic zebrafish embryo assessed as subintestinal vessel area at 100 nM measured after 48 hrs by fluorescence microscopy (reference value: 100%); assay type: toxicity, Danio rerio; conditions: 0.1 µM
[3] = Cytotoxicity against HDFa cells assessed as reduction in cell viability at 0.0005 to 100 uM measured after 72 hrs by MTT assay; assay type: toxicity, cell-based; conditions: human, dose 0.0005-100 µM
[4] = test system: HT-29; test: Cytotoxicity against human HT-29 cells assessed as reduction in cell viability measured after 72 hrs by MTT assay; assay type: functional, cell-based; conditions: HT-29, 72 h
[5] = test system: HCT-116; test: Cytotoxicity against p53-deficient human HCT-116 cells assessed as reduction in cell viability measured after 72 hrs by MTT assay; assay type: functional, cell-based; conditions: HCT-116, 72 h
[6] = Effect on angiogenic activity in human EA.hy 926 cells assessed as reduction in vessel like 2D structure at 25 nM measured after 5 hrs by light microscopy; assay type: toxicity, cell-based; conditions: ea.hy 926, 5 h, 0.025 µM
[7] = biological target: T1, Tubulin (Homo sapiens) (UniProt P68371+Q9H4B7+P0DPH7+P68366+Q13509+Q71U36+P04350+Q3ZCM7+P07437+P68363+Q9BQE3+Q6PEY2+Q13885+Q9BVA1+Q9BUF5); test: Induction of microtubule fragmentation in human 518A2 cells at 25 nM measured after 24 hrs by immunofluorescence assay; assay type: cell-based
[8] = test system: HeLa; test: Cytotoxicity against human HeLa cells assessed as reduction in cell viability measured after 72 hrs by MTT assay; assay type: functional, cell-based
[9] = test system: 518A2; test: Cell cycle arrest in human […] cells assessed as increase in accumulation at G2/M phase at 25 nM measured after 6 to 24 hrs by propidium iodide staining based FACS analysis; assay type: functional; conditions: time 6-24 hrs
[10] = test system: 518A2; test: Cytotoxicity against human 518A2 cells assessed as reduction in cell viability measured after 72 hrs by MTT assay; assay type: functional, cell-based; conditions: 518A2, 72 h
[11] = test system: HCT-116; test: Cytotoxicity against human HCT-116 cells assessed as reduction in cell viability measured after 72 hrs by MTT assay; assay type: functional, cell-based; conditions: HCT-116, 72 h
[12] = biological target: T1, Tubulin (Homo sapiens); test: Induction of microtubule fragmentation in human 518A2 cells assessed as appearance of area with dorsal stress fibre at 25 nM measured after 24 hrs by immunofluorescence assay; assay type: cell-based
[13] = biological target: T1, Tubulin (Homo sapiens); test: Induction of microtubule fragmentation in human 518A2 cells assessed as appearance of area with transverse arcs at 25 nM measured after 24 hrs by immunofluorescence assay; assay type: cell-based
[14] = test system: KB-V1; test: Cytotoxicity against human multidrug-resistant KB-V1 cells assessed as reduction in cell viability measured after 72 hrs by MTT assay; assay type: functional, cell-based; conditions: KB-V1, 72 h
[15] = species: Sus scrofa; test: Inhibition of porcine brain tubulin polymerization at 5 uM measured at 10 mins interval for 100 mins by turbidimetric assay; assay type: tissue-based
[16] = test system: KB-V1; test: Cytotoxicity against human multidrug-resistant KB-V1 cells assessed as reduction in cell viability measured after 72 hrs in presence of verapamil by MTT assay; assay type: functional, cell-based; conditions: KB-V1, 72 h
[17] = test system: 518A2; test: Cell cycle arrest in human […] cells assessed as increase in accumulation at sub-G1 phase at 25 nM measured after 6 to 24 hrs by propidium iodide staining based FACS analysis; assay type: functional; conditions: time 6-24 hrs
[18] = test system: MCF7; test: Cytotoxicity against human MCF7 cells assessed as reduction in cell viability measured after 72 hrs by MTT assay; assay type: functional, cell-based; conditions: MCF7, 72 h
[19] = Cytotoxicity against human U-87 cells assessed as reduction in cell viability measured after 72 hrs by MTT assay; assay type: functional, cell-based, U-87MG ATCC; conditions: U-87 MG
[20] = Cytotoxicity against human EA.hy 926 cells assessed as reduction in cell viability measured after 72 hrs by MTT assay; assay type: toxicity, cell-based
[21] = biological target: T2, Caspase-3/Caspase-7 (Homo sapiens) (UniProt P42574+P55210); test: Activation of caspase-3/7 activity in human 518A2 cells at 25 nM preincubated for 24 hrs followed by caspase-3/7 fluorogenic substrate addition and measured after 60 mins by fluorescence assay; assay type: cell-based; conditions: filed as activator, time 25.0 hrs
T2 sequence (P42574 whole entry, looked up): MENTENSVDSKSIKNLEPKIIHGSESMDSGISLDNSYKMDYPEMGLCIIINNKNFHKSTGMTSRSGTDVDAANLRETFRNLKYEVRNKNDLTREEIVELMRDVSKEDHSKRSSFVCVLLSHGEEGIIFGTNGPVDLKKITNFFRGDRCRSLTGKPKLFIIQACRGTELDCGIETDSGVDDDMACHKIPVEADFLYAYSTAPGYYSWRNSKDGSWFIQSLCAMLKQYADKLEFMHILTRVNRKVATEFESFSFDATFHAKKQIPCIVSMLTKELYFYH
T2 sequence (P55210 whole entry, looked up): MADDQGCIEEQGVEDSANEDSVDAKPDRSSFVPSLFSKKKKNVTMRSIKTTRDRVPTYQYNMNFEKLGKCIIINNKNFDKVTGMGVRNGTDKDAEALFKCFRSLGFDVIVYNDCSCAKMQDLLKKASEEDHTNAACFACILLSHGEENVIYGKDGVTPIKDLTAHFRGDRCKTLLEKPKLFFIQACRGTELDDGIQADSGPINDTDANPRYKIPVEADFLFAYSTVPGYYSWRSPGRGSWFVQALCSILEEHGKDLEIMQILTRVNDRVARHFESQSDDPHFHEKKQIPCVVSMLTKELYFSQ

[22] = biological target: T2, Caspase-3/Caspase-7 (Homo sapiens); test: Activation of caspase-3/7 activity in human 518A2 cells at 1 uM preincubated for 6 hrs followed by caspase-3/7 fluorogenic substrate addition and measured after 60 mins by fluorescence assay; assay type: cell-based; conditions: filed as activator, time 7.0 hrs
[23] = Hydrolytic stability of compound in DMSO-d6/D2O measured after 7 days by 1H-NMR analysis; assay type: physicochemical; conditions: 168 h; time 7 day

SMILES: COc1ccc(C2C(C#N)=C(N)Oc3c2ccc2ccccc32)cc1[N+](=O)[O-] (stereo not given)
- IC50 [1]: 110 nM

SMILES: N#CC1=C(N)Oc2c(ccc3ccccc23)C1c1cccc(S(F)(F)(F)(F)F)c1 (stereo not given)
- IC50 [1]: 130 nM

SMILES: CCCOc1c(OC)cc(C2C(C#N)=C(N)Oc3c2ccc2ccccc32)cc1OC (stereo not given)
- Activity [2]: 74.5%
- Activity [3]: Toxic
- IC50 [4]: 284 nM
- IC50 [5]: 33.1 nM
- Activity [6]: Toxic
- Activity [7]: Active
- IC50 [8]: 33.1 nM
- Activity [9]: Active
- IC50 [10]: 26.1 nM
- IC50 [1]: 30 nM
- IC50 [11]: 68.5 nM
- Activity [12]: Active
- Activity [13]: Active
- IC50 [14]: 23.1 nM
- inhibition [15]: Active
- IC50 [16]: 16.3 nM
- Activity [17]: Active
- IC50 [18]: 21.4 nM
- IC50 [19]: 27.4 nM
- IC50 at 72 h [20]: 11.9 nM
- Activity [21]: Active

SMILES: COc1ccc(C2C(C#N)=C(N)Oc3c2ccc2ccccc32)cc1OC (stereo not given)
- IC50 [1]: 40 nM

SMILES: CNC(=O)c1ccccc1Sc1ccc2c(/C=C/c3ccccn3)n[nH]c2c1 [AXITINIB]
- Activity [2]: 19.6%

SMILES: CCOc1c(OC)cc(C2C(C#N)=C(N)Oc3c2ccc2ccccc32)cc1OC (stereo not given)
- Activity [2]: 78.1%
- Activity [3]: Toxic
- IC50 [4]: 269 nM
- IC50 [5]: 13.1 nM
- Activity [7]: Active
- IC50 [8]: 21.9 nM
- Activity [9]: Active
- IC50 [10]: 25 nM
- IC50 [1]: 14 nM
- IC50 [11]: 22.7 nM
- Activity [12]: Active
- Activity [13]: Active
- IC50 [14]: 20.9 nM
- inhibition [15]: Active
- IC50 [16]: 16.5 nM
- Activity [17]: Active
- IC50 [18]: 28.1 nM
- IC50 [19]: 10.6 nM
- IC50 at 72 h [20]: 6.2 nM
- Activity [21]: Active

SMILES: CN[C@@H]1C[C@H]2O[C@@](C)([C@@H]1OC)n1c3ccccc3c3c4c(c5c6ccccc6n2c5c31)C(=O)NC4
- Activity [22]: Active

SMILES: COc1ccc(/C=C\c2cc(OC)c(OC)c(OC)c2)cc1O [COMBRETASTATIN A4]
- Activity [7]: Active
- Activity [9]: Active
- Activity [12]: Active
- Activity [13]: Active
- inhibition [15]: Active
- Stability [23]: Unstable

SMILES: CCCCOc1c(OC)cc(C2C(C#N)=C(N)Oc3c2ccc2ccccc32)cc1OC (stereo not given)
- Activity [2]: 87.6%
- Activity [3]: Toxic
- IC50 [4]: 671 nM
- IC50 [5]: 172 nM
- Activity [7]: Active
- IC50 [8]: 98.9 nM
- IC50 [10]: 143 nM
- IC50 [1]: 30 nM
- IC50 [11]: 67.4 nM
- Activity [12]: Active
- Activity [13]: Active
- IC50 [14]: 84.5 nM
- inhibition [15]: Active
- IC50 [16]: 41.6 nM
- IC50 [18]: 103 nM
- IC50 [19]: 46.3 nM
- IC50 at 72 h [20]: 78 nM
- Activity [21]: Active

Second part, the molecule after the results:

- IC50 [1]: 16 nM
SMILES: N#CC1=C(N)Oc2c(ccc3ccccc23)C1c1ccc(Cl)c(F)c1 (stereo not given)

- IC50 [1]: 50 nM
SMILES: CCOc1c(I)cc(C2C(C#N)=C(N)Oc3c2ccc2ccccc32)cc1OC (stereo not given)

- IC50 [1]: 70 nM
SMILES: N#CC1=C(N)Oc2c(ccc3ccccc23)C1c1cc(F)c(F)c(F)c1 (stereo not given)

- IC50 [1]: 400 nM
SMILES: COc1ccc(C2C(C#N)=C(N)Oc3c2ccc2ccccc32)cc1C (stereo not given)

- IC50 [1]: 210 nM
SMILES: CSc1ccc(C2C(C#N)=C(N)Oc3c2ccc2ccccc32)cc1 (stereo not given)
